Data reported in US20100226980A1, “NOVEL TABLET BASED ON S-ADENOSYL-METHIONINE” (VETOQUINOL, priority 2009, published 2010).

Test: Pharmacokinetic tests on dogs
Format: in vivo
Experimental: In order to confirm the results obtained in vitro, pharmacokinetic tests were carried out on dogs.

degradation of SAMe (after administration of tablet): not degraded
pharmacokinetic profiles of the different dogs (variability between animals): homogeneous and vary very little
SMILES: C[S+](CC[C@H](N)C(=O)O)C[C@H]1O[C@@H](n2cnc3c(N)ncnc32)[C@H](O)[C@@H]1O.Cc1ccc(S(=O)(=O)[O-])cc1 (stereo partly drawn) [SAMe, S-Adenosyl-Methionine Paratoluene Sulphonate]
absorption of SAMe (after administration of tablet): absorbed in the stomach as soon as it is administered
